pKd: −log10 of the molar value.
Assays:
Format in all cases: cell-based
PPARα = biological target: T1, PPARα (Homo sapiens, UniProt Q07869); test: Cross-curve PPAR transactivation test (luciferase reporter, HeLN cells), PPARα; conditions: HeLN cells stably transfected with Gal-hPPARα; apparent Kd by Schild regression against reference agonist; n.a. means not active; read-out: PPAR alpha Kd app
T1 sequence (Q07869 200-468 limits assumed): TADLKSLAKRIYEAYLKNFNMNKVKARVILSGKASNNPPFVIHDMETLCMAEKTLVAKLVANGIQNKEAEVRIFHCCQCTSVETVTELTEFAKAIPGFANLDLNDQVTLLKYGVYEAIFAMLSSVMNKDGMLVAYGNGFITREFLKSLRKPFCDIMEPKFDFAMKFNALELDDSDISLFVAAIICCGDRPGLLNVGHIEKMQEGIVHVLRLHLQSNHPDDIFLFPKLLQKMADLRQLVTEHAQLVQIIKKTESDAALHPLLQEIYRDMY
Method: (§1) This activity on the PPARα, δ and γ receptors is measured in a transactivation test and quantified by the dissociation constant Kdapp (apparent), as described in Example 142.
(§2) The activation of receptors with an agonist (activator) in HeLN cells leads to the expression of a reporter gene, luciferase, which, in the presence of a substrate, generates light. The modulation of the receptors is measured as quantity of luminescence produced after incubating the cells in the presence of a reference agonist. The ligands will displace the agonist from its site. The measurement of the activity is performed by quantification of the light produced. This measurement makes it possible to determine the modulatory activity of the compounds according to the invention by determining the constant which is the affinity of the molecule for the receptor. […]
(§3) The various dilutions of the test products and of the reference ligand are added in an amount of 5 [I per well. […] After 5 minutes, the plates are read by the luminescence reader.
(§4) These AC50 values are used to calculate the Schild regression by plotting a straight line corresponding to the Schild equation (“quantitation in receptor pharmacology” Terry P. Kenakin, Receptors and Channels, 2001, 7, 371-385) which leads to Kd app values being obtained (in nM).

PPARγ = biological target: T2, PPARγ (Homo sapiens, UniProt P37231); test: Cross-curve PPAR transactivation test (luciferase reporter, HeLN cells), PPARγ; conditions: HeLN cells stably transfected with Gal-hPPARγ; apparent Kd by Schild regression against reference agonist; n.a. means not active; read-out: PPAR gamma Kd app
T2 sequence (P37231 238-505 limits assumed): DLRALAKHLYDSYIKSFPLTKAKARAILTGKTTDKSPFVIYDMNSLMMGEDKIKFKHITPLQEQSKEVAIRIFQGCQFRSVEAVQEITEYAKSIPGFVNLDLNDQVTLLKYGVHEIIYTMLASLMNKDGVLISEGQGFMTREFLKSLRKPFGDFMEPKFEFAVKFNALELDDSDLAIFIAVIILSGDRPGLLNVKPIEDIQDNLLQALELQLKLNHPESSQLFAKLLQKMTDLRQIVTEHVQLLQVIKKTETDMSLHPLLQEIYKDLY
Method: as §1, §2, §3, §4

PPARδ = PPARδ (Homo sapiens, UniProt Q03181); test: Cross-curve PPAR transactivation test (luciferase reporter, HeLN cells), PPARδ; conditions: HeLN cells stably transfected with Gal-hPPARδ; apparent Kd by Schild regression against reference agonist; n.a. means not active; read-out: PPAR delta Kd app
Chain of PPARδ (Q03181 211-441 limits assumed): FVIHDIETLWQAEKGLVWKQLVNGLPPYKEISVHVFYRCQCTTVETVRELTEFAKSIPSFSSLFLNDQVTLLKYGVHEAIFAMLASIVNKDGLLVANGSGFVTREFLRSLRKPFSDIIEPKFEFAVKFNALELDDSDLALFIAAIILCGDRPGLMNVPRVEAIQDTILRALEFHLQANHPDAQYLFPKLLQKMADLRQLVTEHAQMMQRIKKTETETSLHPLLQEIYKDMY
Method: as §1, §2, §3, §4

Compound	pKd (PPARα)	pKd (PPARγ)	pKd (PPARδ)
CCCCCCNC(=O)N(CCCc1ccccc1)c1cccc(Sc2ccc(CC(=O)O)cc2)c1 [Example 30b, (4-{3-[3-Hexyl-1-(3-phenylpropyl)ureido]phenylsulfanyl}phenyl)acetic acid]	5.10	5.70	6.92
O=C(O)Cc1ccc(Sc2ccc(N(CCc3ccccc3)C(=O)NC3CCCCC3)cc2)cc1 [Example 116b, {4-[4-(3-Cyclohexyl-1-phenethylureido)phenylsulfanyl]phenyl}acetic acid]	6.60	6.30	6.92
